From PMC6001238, “Iterative Chemical Engineering of Vancomycin Leads to Novel Vancomycin Analogs With a High in Vitro Therapeutic Index” (Frontiers in Microbiology, 2018)
Converted amounts (≈) assume the structure as drawn.

Assays:
[1] = system: E. faecalis VSE 1; assay: MIC, broth microdilution, vancomycin-sensitive E. faecalis (VSE 1); assay type: cell-based, Enterococcus faecalis; details: for MIC: Enterococcus faecalis VSE 1 (vancomycin-sensitive), read-out: MIC; for MIC-fold improvement vs. vancomycin: VSE 1, ratio of MIC of vancomycin and MIC of analogue
In short: (§1)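 Susceptibility was scored by broth microdilution (CLSI). In one instance each vancomycin analog or control antibiotic was tested in the presence of vancomycin, 10 μM final, and ultrapure water plus non-inoculated broth were included as controls.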

[2] = system: E. faecalis VRE 6; assay: MIC, broth microdilution, vancomycin-resistant E. faecalis VRE 6 (VanA); assay type: cell-based, Enterococcus faecalis; details: for MIC: Enterococcus faecalis VRE 6 (vancomycin-resistant), read-out: MIC; for MIC-fold improvement vs. vancomycin: VRE 6, ratio of MIC of vancomycin and MIC of analogue
In short: as §1

[3] = system: E. faecalis VRE 53; assay: MIC, broth microdilution, vancomycin-resistant E. faecalis VRE 53 (VanA); assay type: cell-based, Enterococcus faecalis; details: for MIC: Enterococcus faecalis VRE 53 (vancomycin-resistant), read-out: MIC; for MIC-fold improvement vs. vancomycin: VRE 53, ratio of MIC of vancomycin and MIC of analogue
In short: as §1

[4] = system: E. faecalis VRE 29; assay: MIC, broth microdilution, vancomycin-resistant E. faecalis VRE 29 (VanA); assay type: cell-based, Enterococcus faecalis; details: for MIC: Enterococcus faecalis VRE 29 (vancomycin-resistant), read-out: MIC; for MIC-fold improvement vs. vancomycin: VRE 29, ratio of MIC of vancomycin and MIC of analogue
In short: as §1

[5] = system: E. faecalis VRE 37; assay: MIC, broth microdilution, vancomycin-resistant E. faecalis VRE 37 (VanA); assay type: cell-based, Enterococcus faecalis; details: for MIC: Enterococcus faecalis VRE 37 (vancomycin-resistant), read-out: MIC; for MIC-fold improvement vs. vancomycin: VRE 37, ratio of MIC of vancomycin and MIC of analogue
In short: as §1

[6] = system: Murine leukemia (L1210) cells; assay: Cytostatic activity, L1210 cell proliferation; assay type: cell-based; details: mean ± SD of three experiments; highest concentration tested 250 µM; 2 days; read-out: Toxicity (IC50) L1210
In short: (§2)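 Readout: Coulter cell number after drug exposure at 37°C. Durations differ by line (L1210 2 days; CEM 3 days; HeLa 4 days). Stock suspension 300,000–500,000 cells/mL, diluted by mixing with compound. Endpoint: IC50 vs negative control.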

[7] = system: human T-lymphocyte (CEM) cells; assay: Cytostatic activity, CEM cell proliferation; assay type: cell-based; details: mean ± SD of three experiments; highest concentration tested 250 µM; 3 days; read-out: Toxicity (IC50) CEM
In short: as §2

[8] = system: human cervix carcinoma (HeLa) cells; assay: Cytostatic activity, HeLa cell proliferation; assay type: cell-based; details: mean ± SD of three experiments; highest concentration tested 250 µM; 4 days; read-out: Toxicity (IC50) HeLa
In short: as §2

[9] = system: L1210, CEM and HeLa cell lines; assay: Cytostatic activity, average or summary over L1210, CEM and HeLa; assay type: cell-based; details: average of L1210, CEM and HeLa; read-out: Toxicity (IC50) Average
In short: as §2

[10] = system: S. aureus VSSA (ATCC 6538); assay: MIC, broth microdilution, vancomycin-sensitive S. aureus (VSSA/MSSA, ATCC 6538); assay type: cell-based, Staphylococcus aureus; details: for MIC: Staphylococcus aureus VSSA, read-out: MIC; for MIC-fold improvement vs. vancomycin: VSSA, ratio of MIC of vancomycin and MIC of analogue
In short: as §1

[11] = system: S. aureus VISA/HIP5827; assay: MIC, broth microdilution, vancomycin-intermediate S. aureus VISA HIP5827; assay type: cell-based, Staphylococcus aureus; details: for MIC: Staphylococcus aureus VISA/HIP5827, read-out: MIC; for MIC-fold improvement vs. vancomycin: VISA/HIP5827, ratio of MIC of vancomycin and MIC of analogue
In short: as §1

[12] = system: S. aureus VRSA; assay: MIC, broth microdilution, vancomycin-resistant S. aureus (VRSA); assay type: cell-based, Staphylococcus aureus; details: for MIC: Staphylococcus aureus VRSA, read-out: MIC; for MIC-fold improvement vs. vancomycin: VRSA, ratio of MIC of vancomycin and MIC of analogue
In short: as §1

[13] = system: MRSA KS2; assay: MIC, broth microdilution, MRSA KS2; assay type: cell-based, Staphylococcus aureus; details: for MIC-fold improvement vs. vancomycin: MRSA KS2, ratio of MIC of vancomycin and MIC of analogue; for MIC: Staphylococcus aureus MRSA KS2, read-out: MIC
In short: as §1

[14] = system: MRSA KS6; assay: MIC, broth microdilution, MRSA KS6; assay type: cell-based, Staphylococcus aureus; details: for MIC-fold improvement vs. vancomycin: MRSA KS6, ratio of MIC of vancomycin and MIC of analogue; for MIC: Staphylococcus aureus MRSA KS6, read-out: MIC
In short: as §1

[15] = system: MRSA KS89; assay: MIC, broth microdilution, MRSA KS89; assay type: cell-based, Staphylococcus aureus; details: for MIC-fold improvement vs. vancomycin: MRSA KS8, ratio of MIC of vancomycin and MIC of analogue; for MIC: Staphylococcus aureus MRSA KS8, read-out: MIC
In short: as §1

[16] = system: MRSA KS1; assay: MIC, broth microdilution, MRSA KS1; assay type: cell-based, Staphylococcus aureus; details: for MIC-fold improvement vs. vancomycin: MRSA KS1, ratio of MIC of vancomycin and MIC of analogue; for MIC: Staphylococcus aureus MRSA KS1, read-out: MIC
In short: as §1

[17] = system: Clostridium difficile ATJ ribotype 014/20; assay: MIC, plate drop assay, C. difficile ATJ ribotype 014/20; assay type: cell-based; details: for MIC-fold improvement vs. vancomycin: C. difficile ATJ ribotype 014/20
In short: (§3)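 Twofold dilution series of test compounds were spotted onto C. difficile lawns in 0.4% BHI agar containing added calcium and magnesium salts. After overnight anaerobic incubation at 37°C, growth inhibition was scored by spot clearing; triplicate runs, ultrapure water negative control.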

[18] = system: Clostridium difficile AIU ribotype 027; assay: MIC, plate drop assay, C. difficile AIU ribotype 027; assay type: cell-based; details: for MIC-fold improvement vs. vancomycin: C. difficile AIU ribotype 027
In short: as §3

Q: How did the MIC [1] turn out when `CN[C@H](CC(C)C)C(=O)N[C@H]1C(=O)N[C@@H](CC(N)=O)C(=O)N[C@H]2C(=O)N[C@H]3C(=O)N[C@H](C(=O)N[C@H](C(=O)NCC(=O)Nc4ccc(Nc5ccccc5)cc4)c4cc(O)cc(O)c4-c4cc3ccc4O)[C@H](O)c3ccc(c(Cl)c3)Oc3cc2cc(c3O[C@@H]2O[C@H](CO)[C@@H](O)[C@H](O)[C@H]2O[C@H]2C[C@](C)(N)[C@H](O)[C@H](C)O2)Oc2ccc(cc2Cl)[C@H]1O` [Vanc-43] was run?
A: The MIC was 0.39 µM (≈ 0.652 µg/mL).

Q: And the “MIC-fold improvement vs. vancomycin” value [1]?
A: Its value is 4.

Q: What about the MIC [2] of the same compound?
A: The MIC was 1.56 µM (≈ 2.61 µg/mL).

Q: And the “MIC-fold improvement vs. vancomycin” value [2]?
A: Its value is 128.

Q: And the MIC [3]?
A: Its MIC is 25 µM (≈ 41.8 µg/mL).

Q: What about the “MIC-fold improvement vs. vancomycin” value [3] of the same compound?
A: The value was 16.

Q: What about the MIC [4] of the same compound?
A: Its MIC is 6.25 µM (≈ 10.5 µg/mL).

Q: And the “MIC-fold improvement vs. vancomycin” value [4]?
A: The value was 64.

Q: And the MIC [5]?
A: Its MIC is 6.25 µM (≈ 10.5 µg/mL).

Q: And the “MIC-fold improvement vs. vancomycin” value [5]?
A: The value was 64.

Q: And the IC50 [6]?
A: The IC50 was over 250 µM.

Q: And the IC50 [7]?
A: Its IC50 is over 250 µM.

Q: What about the IC50 [8] of the same compound?
A: Its IC50 is over 250 µM.

Q: What about the IC50 [9] of the same compound?
A: The IC50 was over 250 µM.

Q: And the MIC [10]?
A: Its MIC is 0.39 µM (≈ 0.652 µg/mL).

Q: And the “MIC-fold improvement vs. vancomycin” value [10]?
A: The value was 2.

Q: And the MIC [11]?
A: Its MIC is 1.56 µM (≈ 2.61 µg/mL).

Q: What about the “MIC-fold improvement vs. vancomycin” value [11] of the same compound?
A: The value was 4.

Q: What about the MIC [12] of the same compound?
A: Its MIC is 1.56 µM (≈ 2.61 µg/mL).

Q: And the “MIC-fold improvement vs. vancomycin” value [12]?
A: Its value is 64.

Q: What about the “MIC-fold improvement vs. vancomycin” value [13] of the same compound?
A: The value was 2.

Q: And the MIC [13]?
A: The MIC was 0.39 µM (≈ 0.652 µg/mL).

Q: What about the “MIC-fold improvement vs. vancomycin” value [14] of the same compound?
A: Its value is 0.25.

Q: And the MIC [14]?
A: Its MIC is 3.13 µM (≈ 5.24 µg/mL).

Q: What about the “MIC-fold improvement vs. vancomycin” value [15] of the same compound?
A: Its value is 2.

Q: What about the MIC [15] of the same compound?
A: Its MIC is 0.39 µM (≈ 0.652 µg/mL).

Q: What about the “MIC-fold improvement vs. vancomycin” value [16] of the same compound?
A: The value was 2.

Q: What about the MIC [16] of the same compound?
A: The MIC was 0.39 µM (≈ 0.652 µg/mL).

Q: And the “MIC-fold improvement vs. vancomycin” value [17]?
A: Its value is 22.

Q: What about the “MIC-fold improvement vs. vancomycin” value [18] of the same compound?
A: Its value is 29.

Q: How did the MIC [1] turn out when `CCCCC#Cc1ccc(/C=C/C(=O)NCCNC(=O)[C@H]2NC(=O)[C@H]3NC(=O)[C@H](NC(=O)[C@@H]4NC(=O)[C@H](CC(N)=O)NC(=O)[C@H](NC(=O)[C@@H](CC(C)C)NC)[C@H](O)c5ccc(c(Cl)c5)Oc5cc4cc(c5O[C@@H]4O[C@H](CO)[C@@H](O)[C@H](O)[C@H]4O[C@H]4C[C@](C)(N)[C@H](O)[C@H](C)O4)Oc4ccc(cc4Cl)[C@H]3O)c3ccc(O)c(c3)-c3c(O)cc(O)cc32)cc1` [Vanc-48] was run?
A: Its MIC is 0.78 µM (≈ 1.33 µg/mL).

Q: What about the “MIC-fold improvement vs. vancomycin” value [1] of the same compound?
A: Its value is 2.

Q: And the MIC [2]?
A: The MIC was 1.56 µM (≈ 2.65 µg/mL).

Q: What about the “MIC-fold improvement vs. vancomycin” value [2] of the same compound?
A: The value was 128.

Q: And the MIC [3]?
A: The MIC was 6.25 µM (≈ 10.6 µg/mL).

Q: What about the “MIC-fold improvement vs. vancomycin” value [3] of the same compound?
A: The value was 64.

Q: And the MIC [4]?
A: The MIC was 3.13 µM (≈ 5.33 µg/mL).

Q: What about the “MIC-fold improvement vs. vancomycin” value [4] of the same compound?
A: The value was 128.

Q: And the MIC [5]?
A: Its MIC is 3.13 µM (≈ 5.33 µg/mL).

Q: And the “MIC-fold improvement vs. vancomycin” value [5]?
A: The value was 128.

Q: And the IC50 [6]?
A: The IC50 was 142 ± 21 µM.

Q: And the IC50 [7]?
A: The IC50 was 83 ± 11 µM.

Q: And the IC50 [8]?
A: The IC50 was over 250 µM.

Q: What about the IC50 [9] of the same compound?
A: The IC50 was 158 µM.

Q: And the MIC [10]?
A: Its MIC is 0.20 µM (≈ 0.34 µg/mL).

Q: What about the “MIC-fold improvement vs. vancomycin” value [10] of the same compound?
A: Its value is 4.

Q: What about the MIC [11] of the same compound?
A: The MIC was 1.56 µM (≈ 2.65 µg/mL).

Q: What about the “MIC-fold improvement vs. vancomycin” value [11] of the same compound?
A: The value was 4.

Q: What about the MIC [12] of the same compound?
A: The MIC was 1.56 µM (≈ 2.65 µg/mL).

Q: And the “MIC-fold improvement vs. vancomycin” value [12]?
A: The value was 64.

Q: And the “MIC-fold improvement vs. vancomycin” value [13]?
A: The value was 4.

Q: And the MIC [13]?
A: Its MIC is 0.20 µM (≈ 0.34 µg/mL).

Q: And the “MIC-fold improvement vs. vancomycin” value [14]?
A: Its value is 0.25.

Q: And the MIC [14]?
A: The MIC was 3.13 µM (≈ 5.33 µg/mL).

Q: What about the “MIC-fold improvement vs. vancomycin” value [15] of the same compound?
A: The value was 2.

Q: What about the MIC [15] of the same compound?
A: Its MIC is 0.39 µM (≈ 0.664 µg/mL).

Q: And the “MIC-fold improvement vs. vancomycin” value [16]?
A: Its value is over 8.

Q: What about the MIC [16] of the same compound?
A: The MIC was under 0.10 µM.

Q: And the “MIC-fold improvement vs. vancomycin” value [17]?
A: The value was “up to 45”.

Q: What about the MIC ([17]; C. difficile ATJ ribotype 014/20, plate drop assay) of the same compound?
A: Its MIC is 0.78 µM (≈ 1.33 µg/mL).

Q: And the “MIC-fold improvement vs. vancomycin” value ([17]; listed as Vanc- 48)?
A: The value was 45.

Q: And the “MIC-fold improvement vs. vancomycin” value [18]?
A: Its value is at most 58.

Q: And the MIC ([18]; C. difficile AIU ribotype 027, plate drop assay)?
A: The MIC was 0.78 µM (≈ 1.33 µg/mL).

Q: And the “MIC-fold improvement vs. vancomycin” value ([18]; listed as Vanc- 48)?
A: The value was 58.
